Measured values: ChEMBL document CHEMBL5376004, “Discovery and Development of Quinazolinones and Quinazolinediones for Ameliorating Nonalcoholic Fatty Liver Disease (NAFLD) by Modulating COP1-ATGL Axis” (J Med Chem, 2023)
Converted amounts (≈) assume the structure as drawn. The source made the active and inactive calls. The rule behind the calls is not given here.

How the values were obtained:
[1] = Lipophilicity, logD of compound; format: physicochemical; settings: octanol/water
Mus musculus [2] = assay: Anti-NASH activity in high-fat diet induced nonalcoholic steatohepatitis C57BL/6 mouse assessed as reduction in liver collagen fiber content at 80 mg/kg, po administered for 1 month by sirius red staining based assay; format: functional, organism-based; settings: time 1.0 months
COP1-AGTL (Homo sapiens) = COP1-AGTL (Homo sapiens) (UniProt Q96AD5+Q8NHY2); assay: Induction of COP1 to ATGL stabilization (unknown origin) expressed in HEK293-A cells assessed as reduction in ATGL ubiquitination incubated for 6 hrs by Western blotting analysis; format: cell-based
HepG2 [3] = assay: Effect on COP1 in human HepG2 cells assessed as change in p53 level at 10 to 500 nM by RT-qPCR analysis; format: functional, cell-based; settings: dose 10-500 nM
Mus musculus [4] = assay: Anti-NASH activity in high-fat diet induced nonalcoholic steatohepatitis C57BL/6 mouse assessed as reduction in liver triglyceride level at 80 mg/kg, po administered for 1 month; format: functional, organism-based; settings: time 1.0 months
[5] = Stability in mouse plasma assessed as compound remaining after 2 hrs; format: ADME, cell-free; settings: read-out: Stability
HepG2 [6] = assay: Reduction in lipid droplets in human HepG2 cells by […] staining based confocal microscopic analysis; format: functional, cell-based
[7] = target: E3 ubiquitin-protein ligase COP1 (Homo sapiens) (UniProt Q8NHY2); assay: Inhibition of COP1 auto-ubiquitination in human HepG2 cells preincubated for 20 hrs followed by MG132 addition and measured after 4 hrs by immunoprecipitation method; format: cell-based; settings: time 24.0 hrs
HepG2 [8] = assay: Cytotoxicity against human HepG2 cells upto 5 uM incubated for 24 hrs by MTT assay; format: toxicity, cell-based; settings: hepg2, 24 h
[9] = Metabolic stability in human liver microsomes assessed as hepatic blood flow; format: ADME, Microsome; settings: read-out: QH
Mus musculus [10] = assay: Upregulation of COP1 expression level in C57BL/6 mouse liver at 80 mg/kg, po administered for 7 days; format: functional, organism-based; settings: time 7.0 day
HepG2 [11] = assay: Reduction in lipid droplets in human HepG2 cells at 100 nM incubated for 24 hrs by Hoechst 33342 staining based confocal microscopic analysis; format: functional, cell-based
Mus musculus [12] = assay: Anti-NASH activity in high-fat diet induced nonalcoholic steatohepatitis C57BL/6 mouse assessed as reduction in liver weight at 80 mg/kg, po administered for 1 month; format: functional, organism-based; settings: time 1.0 months
Mus musculus [13] = assay: Anti-NASH activity in high-fat diet induced nonalcoholic steatohepatitis C57BL/6 mouse assessed as appearance of darker liver at 80 mg/kg, po administered for 1 month; format: functional, organism-based; settings: time 1.0 months
[14] = Stability in human plasma assessed as compound remaining after 2 hrs; format: ADME, cell-free; settings: read-out: Stability
[15] = Toxicity in C57BL/6 mouse assessed as change in kidney morphology by H and E staining based histological analysis; settings: in vivo
Hepatocyte [16] = assay: Reduction in lipid droplets in oleate induced mouse primary hepatocytes at 100 nM by BODIPY493/503 staining based confocal microscopic analysis; format: functional, cell-based
[17] = Metabolic stability in mouse liver microsomes assessed as half life; format: ADME, Microsome
Mus musculus [18] = assay: Anti-NASH activity in high-fat diet induced nonalcoholic steatohepatitis C57BL/6 mouse assessed as reduction in body weight at 80 mg/kg, po administered for 1 month; format: functional, organism-based; settings: time 1.0 months
[19] = Toxicity in C57BL/6 mouse assessed as inflammatory infiltration; settings: in vivo
[20] = Toxicity in C57BL/6 mouse assessed as change in lung morphology by H and E staining based histological analysis; format: tissue-based; settings: in vivo
HepG2 [21] = assay: Effect on COP1 in human HepG2 cells assessed as change in c-Jun level at 10 to 500 nM by RT-qPCR analysis; format: functional, cell-based; settings: dose 10-500 nM
Mus musculus [22] = assay: Upregulation of ATGL expression level in C57BL/6 mouse adipose tissue at 80 mg/kg, po administered for 7 days; format: functional, organism-based; settings: time 7.0 day
[23] = Metabolic stability in human liver microsomes assessed as half life; format: ADME, Microsome
Mus musculus [24] = assay: Anti-NASH activity in high-fat diet induced nonalcoholic steatohepatitis C57BL/6 mouse assessed as reduction in accumulation of fat droplets at 80 mg/kg, po administered for 1 month by H and E staining based assay; format: functional, organism-based; settings: time 1.0 months
Mus musculus [25] = assay: Upregulation of ATGL expression level in C57BL/6 mouse liver at 80 mg/kg, po administered for 7 days; format: functional, organism-based; settings: time 7.0 day
[26] = target: T1, Patatin-like phospholipase domain-containing protein 2 (Homo sapiens) (UniProt Q96AD5); assay: Inhibition of ATGL ubiquitination (unknown origin) expressed in HEK293-A cells incubated for 6 hrs by Western blotting analysis; format: cell-based
T1 sequence (whole entry): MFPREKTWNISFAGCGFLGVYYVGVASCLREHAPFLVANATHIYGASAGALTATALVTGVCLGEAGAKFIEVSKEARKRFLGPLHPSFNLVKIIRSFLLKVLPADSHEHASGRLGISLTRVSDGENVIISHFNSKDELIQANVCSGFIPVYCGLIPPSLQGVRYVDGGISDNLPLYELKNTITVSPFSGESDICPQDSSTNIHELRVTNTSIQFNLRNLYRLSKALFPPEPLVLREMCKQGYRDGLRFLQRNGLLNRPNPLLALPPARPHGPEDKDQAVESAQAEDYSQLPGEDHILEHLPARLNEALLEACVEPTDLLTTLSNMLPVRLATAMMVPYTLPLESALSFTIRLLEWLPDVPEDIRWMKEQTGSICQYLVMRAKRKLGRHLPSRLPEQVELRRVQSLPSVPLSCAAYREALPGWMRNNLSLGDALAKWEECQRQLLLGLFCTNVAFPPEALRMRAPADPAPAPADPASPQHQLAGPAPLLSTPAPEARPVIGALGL

Mus musculus [27] = assay: Anti-NASH activity in high-fat diet induced nonalcoholic steatohepatitis C57BL/6 mouse assessed as reduction in liver size at 80 mg/kg, po administered for 1 month; format: functional, organism-based; settings: time 1.0 months
HepG2 [28] = assay: Effect on ATGL mRNA level in human HepG2 cells at 50 to 5000 nM after 24 hrs by RT-qPCR analysis; format: functional, cell-based; settings: dose 50-5000 nM
[29] = Aqueous solubility of compound at pH 7.4; format: physicochemical
Hepatocyte [30] = assay: Upregulation of ATGL protein level in mouse primary hepatocytes incubated for 24 hrs by Western blotting analysis; format: functional, cell-based; settings: dose 10-500 nM
[31] = Metabolic stability in mouse liver microsomes assessed as hepatic blood flow; format: ADME, Microsome; settings: read-out: QH
[32] = Metabolic stability in human liver microsomes assessed as intrinsic clearance per mg of protein; format: ADME, Microsome; settings: read-out: CLH
Mus musculus [33] = species on record: Mus musculus; assay: Upregulation of ATGL protein level in mouse primary adipose tissue incubated for 24 hrs by Western blotting analysis; format: functional, tissue-based; settings: dose 100-1000 nM
[34] = target: T1, Patatin-like phospholipase domain-containing protein 2 (Homo sapiens); assay: Inhibition of ATGL ubiquitination in human HepG2 cells preincubated for 20 hrs followed by MG132 addition and measured after 4 hrs by immunoprecipitation method; format: cell-based; settings: time 24.0 hrs
[35] = Metabolic stability in mouse liver microsomes assessed as intrinsic clearance per mg of protein; format: ADME, Microsome; settings: read-out: CLH
[36] = Toxicity in C57BL/6 mouse assessed as change in liver morphology by H and E staining based histological analysis; format: tissue-based; settings: in vivo
[37] = Toxicity in C57BL/6 mouse assessed as change in kidney tubular structure; format: tissue-based; settings: in vivo
Mus musculus [38] = assay: Upregulation of COP1 expression level in C57BL/6 mouse adipose tissue at 80 mg/kg, po administered for 7 days; format: functional, organism-based; settings: time 7.0 day

Sequence of COP1-AGTL (Homo sapiens) (Q8NHY2 whole entry, looked up, one chain of several): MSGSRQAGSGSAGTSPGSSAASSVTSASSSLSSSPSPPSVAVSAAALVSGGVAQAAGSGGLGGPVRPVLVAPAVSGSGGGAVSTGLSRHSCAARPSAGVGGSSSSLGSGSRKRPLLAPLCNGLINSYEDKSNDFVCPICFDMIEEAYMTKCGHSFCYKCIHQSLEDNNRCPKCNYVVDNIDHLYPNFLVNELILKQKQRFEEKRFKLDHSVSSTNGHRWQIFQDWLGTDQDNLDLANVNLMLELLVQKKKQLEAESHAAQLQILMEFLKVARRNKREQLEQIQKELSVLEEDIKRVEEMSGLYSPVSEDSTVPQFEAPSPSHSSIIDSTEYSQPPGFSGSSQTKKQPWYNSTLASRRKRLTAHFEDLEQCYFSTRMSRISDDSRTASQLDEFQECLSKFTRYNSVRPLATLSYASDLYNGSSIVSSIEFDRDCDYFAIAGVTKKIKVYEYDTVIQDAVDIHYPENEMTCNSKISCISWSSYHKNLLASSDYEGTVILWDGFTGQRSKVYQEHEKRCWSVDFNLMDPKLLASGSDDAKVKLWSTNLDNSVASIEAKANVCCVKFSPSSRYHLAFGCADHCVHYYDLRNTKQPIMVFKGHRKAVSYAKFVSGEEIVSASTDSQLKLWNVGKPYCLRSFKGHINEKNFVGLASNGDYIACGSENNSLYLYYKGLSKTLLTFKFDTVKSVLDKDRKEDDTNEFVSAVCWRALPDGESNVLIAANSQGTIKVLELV
Sequence of E3 ubiquitin-protein ligase COP1 (Homo sapiens) (Q8NHY2 whole entry): as the sequence (Q8NHY2 whole entry, looked up, one chain of several) above

Structure (SMILES) | logD [1] | Activity (Mus musculus [2]) | Activity (COP1-AGTL (Homo sapiens)) | Activity (HepG2 [3]) | Activity (Mus musculus [4]) | remaining at 2 h [5] | Activity (HepG2 [6]) | Activity (HepG2 [8]) | hepatic extraction ratio [9] | Activity (Mus musculus [10]) | Activity (Mus musculus [12]) | Activity (Mus musculus [13]) | remaining at 2 h [14] | Activity [15] | half-life [17] | Activity (Mus musculus [18]) | Activity [19] | Activity [20] | Activity (HepG2 [21]) | Activity (Mus musculus [22]) | other results
COCCn1c(=O)c2cc(NC(=O)Nc3cccc(C(C)=O)c3)ccc2n(CCN2CCCCC2)c1=O | 2.78 | Active | Active | inactive | Active | 103% | Active | Non-Toxic | 0.567 | Active | Active | Active | 110% | Non-Toxic | 12.3 min | Active | Non-Toxic | Non-Toxic | inactive | inactive | inhibition [7]: Active; Activity (HepG2 [11]): Active; Activity (Hepatocyte [16]): Active; half-life [23]: 24.5 min; Activity (Mus musculus [24]): Active; Activity (Mus musculus [25]): Active; inhibition [26]: Active; Activity (Mus musculus [27]): Active; Activity (HepG2 [28]): inactive; solubility [29]: 116 µg/mL (≈ 228 µM); Activity (Hepatocyte [30]): Dose-Dependent Effect; hepatic extraction ratio [31]: 0.605; microsomal CLint [32]: 28.3 µL/min/mg; Activity (Mus musculus [33]): inactive; inhibition [34]: Active; microsomal CLint [35]: 56.2 µL/min/mg; Activity [36]: Non-Toxic; Activity [37]: Non-Toxic; Activity (Mus musculus [38]): inactive
COCCn1cnc2ccc(NC(=O)Nc3cccc(C(C)=O)c3)cc2c1=O | 2.38 | Active | Active | inactive | Active | 14.2% | Active | Non-Toxic | 0.213 | Active | Active | Active | 16.9% | Non-Toxic | 87 min | Active | Non-Toxic | Non-Toxic | inactive | inactive | half-life [23]: 119 min; Activity (Mus musculus [24]): Active; Activity (Mus musculus [25]): Active; inhibition [26]: Active; Activity (Mus musculus [27]): Active; Activity (HepG2 [28]): inactive; solubility [29]: 2.56 µg/mL (≈ 6.73 µM); Activity (Hepatocyte [30]): Dose-Dependent Effect; hepatic extraction ratio [31]: 0.181; microsomal CLint [32]: 5.84 µL/min/mg; Activity (Mus musculus [33]): inactive; microsomal CLint [35]: 8.15 µL/min/mg; Activity [36]: Non-Toxic; Activity [37]: Non-Toxic; Activity (Mus musculus [38]): inactive
